Assay results from US8124637B2, “Anthra [1, 2-d]imidazole-6,11-dione derivatives, preparation method and application thereof” (National Defense Medical Center, priority 2010, dated 2012).
“Also recorded” adds a separate entry of the source. Like-named read-outs stand apart in the source and are kept apart here.

What was measured:
[1] = tested on: hTERT promoter (PhTERT) expression; experiment: SEAP assay (PhTERT-SEAP reporter, H1299); type: cell-based, human; settings: for activity at 1 µM / activity at 10 µM / activity at 100 µM: Homo sapiens, NCI-H1299, PhTERT-SEAP (H1299); for activity at 1 µM: read-out: Relative SEAP activity (%); for activity at 10 µM / activity at 100 µM: read-out: Relative SEAP activity (%) (converted); for Relative SEAP activity (%): PhTERT-SEAP (H1299)
Experimental: H1299 were grown in RPMI 1640 media supplemented with 10% fetal bovine serum, 100 units/mL penicillin and […] streptomycin in a humidified atmosphere with 5% CO2 at 37° C. Culture media were changed every three days. To establish stable cell lines that the expression of hTERT could be monitored by a reporter system, a about 3.3 kbp DNA fragment ranging from −3338 to +1 bp of the hTERT gene (hTERT promoter, PhTERT) was subcloned upstream to a secreted alkaline phosphatase gene (SEAP) and transfected into H1299 bp electroporation. The stable clones were selected using G418. The stable clones derived from H1299 were cultured using conditions that are similar to their parental cells.
Secreted alkaline phosphatase was used as the reporter system to monitor the transcriptional activity of hTERT. Here, about 10^4 cells each were grown in 96-well plates and incubated at 37° C. for 24 hours and changed with fresh media. Varying amounts of drugs were added and cells were incubated for another 24 hours. Culture media were collected and heated at 65° C. for 10 min to inactivate heat-labile phosphatases. An equal amount of SEAP buffer (2 M diethanolamine, 1 mM MgCl2, and 20 mM L-homoarginine) was added to the media and p-nitrophenyl phosphate was added to a final concentration of 12 mM. Absorptions at 405 nm were taken, and the rate of absorption increase is determined (the increasing rate of absorbance at 405 nm was used to represent the activity of SEAP).

[2] = MTT assay (relative cell survival), H1299; settings: human, H1299 non-small cell lung cancer cells (PhTERT-SEAP), Relative MTT viability (%)
Experimental: (§1) Further, cells were subjected to MTT assay to compare the relative toxicity or effect of each compound on cell proliferation and activity.
(§2) The above-described cells are cultured in a 96-well plate, to which was added with 25 μl MTT solution, and cultured in a 37° C. carbon dioxide incubator for 4 hours. Then, 100 μl Lysis buffer is added and incubated in a 37° C. carbon dioxide incubator overnight. An ELISA reader (Bio-Rad Model 450) is used to read optical density (O.D.) at 550 nm.
(§3) After being subjected to different compound treatments for 72 hours, cells were treated with a fixed amount of MTT solution for 28 hours. Then, DMSO was used to dissolve back formazan, an O. D. value was detected at wavelength in the range of 550/670 nm, and calculated accordingly the cell survival rate (as shown in Table 1).

[3] = tested on: H1299 cells; experiment: MTT assay (relative cell survival), H1299; settings: PhTERT-SEAP (H1299), 100 μM
Experimental: as §1, §2, §3

[4] = tested on: H1299 cells
Experimental: as §1, §2, §3

[5] = in vitro; settings: human, Relative MTT viability (%)
Experimental: as §1, §2, §3

[6] = biological target: T1, telomerase (total cell lysates of lung cancer cell line H1299) (Homo sapiens, UniProt O14746); experiment: Telomere repeat amplification protocol (TRAP) assay; type: biochemical; settings: gel; for inhibition effect/activity of telomerase (TRAP): preliminary screening at 10 μM
T1 construct: As a source of telomerase, the total cell lysates derived from lung cancer cell line H1299 cells were used; endogenous in cells; host or cells: H1299 lung cancer cells (total cell lysate)
T1 sequence (O14746 whole entry): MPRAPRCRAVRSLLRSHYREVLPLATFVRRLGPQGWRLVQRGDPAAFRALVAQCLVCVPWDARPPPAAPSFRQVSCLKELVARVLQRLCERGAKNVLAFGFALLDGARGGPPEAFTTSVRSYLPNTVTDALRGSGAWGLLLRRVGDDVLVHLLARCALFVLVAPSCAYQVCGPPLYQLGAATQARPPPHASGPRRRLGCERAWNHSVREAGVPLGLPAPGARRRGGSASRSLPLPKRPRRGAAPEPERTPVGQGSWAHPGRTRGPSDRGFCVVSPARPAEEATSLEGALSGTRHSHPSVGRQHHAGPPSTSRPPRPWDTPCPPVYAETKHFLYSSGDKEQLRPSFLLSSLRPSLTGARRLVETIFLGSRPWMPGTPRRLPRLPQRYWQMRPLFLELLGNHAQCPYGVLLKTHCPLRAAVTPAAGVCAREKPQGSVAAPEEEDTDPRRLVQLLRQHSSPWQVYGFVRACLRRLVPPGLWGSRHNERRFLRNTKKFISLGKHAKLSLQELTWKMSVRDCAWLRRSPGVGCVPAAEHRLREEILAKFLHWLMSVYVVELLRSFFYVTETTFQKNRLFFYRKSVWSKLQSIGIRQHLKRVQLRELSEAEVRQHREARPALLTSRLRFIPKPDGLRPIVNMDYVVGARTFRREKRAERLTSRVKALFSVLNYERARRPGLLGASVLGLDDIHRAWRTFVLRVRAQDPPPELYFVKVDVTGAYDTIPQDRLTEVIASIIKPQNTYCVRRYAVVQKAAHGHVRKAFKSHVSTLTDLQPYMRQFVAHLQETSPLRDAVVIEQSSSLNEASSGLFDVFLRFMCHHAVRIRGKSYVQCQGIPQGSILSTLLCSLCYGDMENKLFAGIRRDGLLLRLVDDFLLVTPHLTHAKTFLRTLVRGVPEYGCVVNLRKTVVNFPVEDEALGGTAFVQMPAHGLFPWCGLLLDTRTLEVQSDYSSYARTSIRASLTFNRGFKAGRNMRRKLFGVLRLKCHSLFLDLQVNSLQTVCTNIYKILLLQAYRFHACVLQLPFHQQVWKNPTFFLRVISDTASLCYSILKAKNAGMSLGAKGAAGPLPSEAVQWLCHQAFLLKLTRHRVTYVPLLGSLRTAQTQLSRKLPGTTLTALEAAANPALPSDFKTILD
T1 sequence (O60832 whole entry partner): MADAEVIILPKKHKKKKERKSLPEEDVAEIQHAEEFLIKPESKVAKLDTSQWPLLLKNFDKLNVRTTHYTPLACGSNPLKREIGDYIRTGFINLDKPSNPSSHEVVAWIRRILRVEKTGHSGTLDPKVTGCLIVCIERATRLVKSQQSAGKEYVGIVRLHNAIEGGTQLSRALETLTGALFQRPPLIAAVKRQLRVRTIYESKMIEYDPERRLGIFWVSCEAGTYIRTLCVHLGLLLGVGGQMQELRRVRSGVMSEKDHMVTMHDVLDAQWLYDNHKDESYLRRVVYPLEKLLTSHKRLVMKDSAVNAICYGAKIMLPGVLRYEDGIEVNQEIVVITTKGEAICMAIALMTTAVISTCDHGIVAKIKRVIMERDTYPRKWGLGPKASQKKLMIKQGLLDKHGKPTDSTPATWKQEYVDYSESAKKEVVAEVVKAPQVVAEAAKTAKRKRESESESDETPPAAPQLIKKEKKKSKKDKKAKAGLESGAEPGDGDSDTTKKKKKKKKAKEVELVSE
T1 sequence (Q9NX24 whole entry partner): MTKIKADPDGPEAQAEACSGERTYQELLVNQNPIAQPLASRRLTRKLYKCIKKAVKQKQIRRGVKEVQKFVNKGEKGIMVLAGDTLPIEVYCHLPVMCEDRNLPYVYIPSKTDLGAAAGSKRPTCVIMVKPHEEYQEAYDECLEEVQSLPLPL
T1 sequence (Q9NPE3 whole entry partner): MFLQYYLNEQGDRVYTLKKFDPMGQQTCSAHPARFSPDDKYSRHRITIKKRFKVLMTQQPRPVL
T1 sequence (Q9NY12 whole entry partner): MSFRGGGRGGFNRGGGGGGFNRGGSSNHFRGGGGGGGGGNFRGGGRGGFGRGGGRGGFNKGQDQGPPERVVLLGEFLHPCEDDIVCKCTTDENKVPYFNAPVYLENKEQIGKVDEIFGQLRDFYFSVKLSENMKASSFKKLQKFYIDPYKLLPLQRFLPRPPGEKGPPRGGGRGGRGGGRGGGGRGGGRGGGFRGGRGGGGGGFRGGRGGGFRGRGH
Experimental: Telomerase activity was detected by a modified version of the general TRAP protocol. Telomerase products were resolved by 10% polyacrylamide gel electrophoresis and visualized by staining with SYBER Green. As a source of telomerase, the total cell lysates derived from lung cancer cell line H1299 cells were used. Protein concentration of the lysates was assayed using Bio-Rad protein assay kit using BSA standards.
In the FIGS. 3A, 3B and FIG. 4, a positive control group (P) used water that had been sterilized three times in the assay; while a negative control group (N) used RNase A (CLONTECH) (5 μL, 0.1 mg/mL) in the assay.
In the positive control group (P), due to the absence of inhibitor, the telomerase could extend the telomere, such that some longer telomere fragments could be observed; while there was not observed in the negative control group (N). In the result of TRAP assay (FIG. 3A to 3B), compounds with a concentration of 10 μM was used as the preliminary screening. In the gel, standard compound A was 1,2-diaminoanthraquinone, D was doxorubicin, and M was mitoxantrone.

SMILES | activity at 1 µM ([1]; 1 μM) | activity at 10 µM ([1]; 10 μM) | activity at 100 µM [1] | viability at 72 h, 1 µM [2] | viability at 72 h, 10 µM [2] | viability at 72 h, 100 µM [2] | Relative MTT viability (%) [3] | viability at 72 h, 1 µM [5] | viability at 72 h, 10 µM [5] | also measured
O=C1c2ccccc2C(=O)c2c1ccc1nc(CCCl)[nH]c21 [CL35, 2-(2-chloroethyl)-1H-anthra[1,2-d]imidazole-6,11-dione] | 94.7 ± 9.12% | 82.8% | 7.62% | 91.1 ± 5.56% | 85.6% | > 40% | 40.27 ± 1.32% | – | – | –
COc1cccc2c1C(=O)c1c(O)c3c(c(O)c1C2=O)C[C@@](O)(C(=O)CO)C[C@@H]3O[C@H]1C[C@H](N)[C@H](O)[C@H](C)O1 [doxorubicin, reference compound] | 33.8 ± 3.22% | 13.6 ± 3.56% | 5.18 ± 4.01% | – | – | – | – | 17.1 ± 5.37% | – | Relative MTT viability (%) ([4]; human, 72 h, 10 µM): −9.79 ± 2.78%; Relative MTT viability (%) ([4]; human, 72 h, 100 µM): −11.38 ± 4.34%
COc1cccc(N2CCN(Cc3nc4ccc5c(c4[nH]3)C(=O)c3ccccc3C5=O)CC2)c1 [CL32, 2-((4-(3-methoxyphenyl)piperazin-1-yl)methyl)-1H-anthra[1,2-d]imidazole-6,11-dione] | 105 ± 5.64% | < 50% | 3.33% | – | – | – | – | 81.3 ± 9.72% | > 50% | viability at 72 h, 100 µM [5]: 23.9%
Nc1ccc2c(c1N)C(=O)c1ccccc1C2=O [1,2-diaminoanthraquinone, reference compound] | 98.5 ± 11.7% | 77.3 ± 11.6% | 18.2 ± 4.45% | – | – | – | – | 105 ± 9.37% | 95.5 ± 3.75% | viability at 72 h, 100 µM [5]: 39.3 ± 8.84%
CC1CCN(Cc2nc3ccc4c(c3[nH]2)C(=O)c2ccccc2C4=O)CC1 [CL17, 2-((4-methylpiperidin-1-yl)methyl)-1H-anthra[1,2-d]imidazole-6,11-dione] | 102 ± 4.81% | 97.3% | 25.6% | 114 ± 3.31% | 110% | > 40% | 32.26 ± 2.68% | – | – | –
O=C1c2ccccc2C(=O)c2c1ccc1nc(CCN3CCN(c4ccccn4)CC3)[nH]c21 [CL38, 2-(2-(4-(pyridin-2-yl)piperazin-1-yl)ethyl)-1H-anthra[1,2-d]imidazole-6,11-dione] | 87.6 ± 8.63% | 62.9% | 1.49% | 98 ± 7.72% | 92.8% | > 40% | 57.03 ± 10.76% | – | – | –
O=C1c2ccccc2C(=O)c2c1ccc1nc(CCl)[nH]c21 [CL01, 2-(chloromethyl)-1H-anthra[1,2-d]imidazole-6,11-dione] | 69.2 ± 1.89% | -0.58 ± 1.16% | 2.87 ± 1.42% | – | – | – | – | 82.3 ± 6.19% | < 50% | Relative MTT viability (%) ([4]; human, 72 h, 100 µM): −5.28 ± 1.13%
O=C1c2c(O)ccc(O)c2C(=O)c2c(NCCNCCO)ccc(NCCNCCO)c21 [mitoxantrone, reference compound] | 20.8 ± 1.56% | 9.92 ± 4.8% | 7.19 ± 1.59% | – | – | – | – | 23.7 ± 8.06% | – | Relative MTT viability (%) ([4]; human, 72 h, 10 µM): −8.51 ± 1.13%; Relative MTT viability (%) ([4]; human, 72 h, 100 µM): −0.44 ± 1.01%
O=C1c2ccccc2C(=O)c2c1ccc1nc(CCN3CCN(c4ccccc4)CC3)[nH]c21 [CL37, 2-(2-(4-phenylpiperazin-1-yl)ethyl)-1H-anthra[1,2-d]imidazole-6,11-dione] | 104 ± 4.96% | 92.7% | 36.6% | – | – | – | – | 94 ± 0.98% | 96.5% | –
O=C1c2ccccc2C(=O)c2c1ccc1nc(CN3CCC(CCCC4CCNCC4)CC3)[nH]c21 [CL20, 2-((4-(3-(piperidin-4-yl)propyl)piperidin-1-yl)methyl)-1H-anthra[1,2-d]imidazole-6,11-dione] | 96 ± 5.48% | 7.52% | 3.08% | 97 ± 4.74% | < 50% | – | – | – | – | telomerase inhibiting effect (TRAP) ([6]; 1 μM): telomerase inhibiting effect could be observed still; inhibition effect/activity of telomerase (TRAP) [6]: more significant inhibition effect/activity of telomerase; also recorded: highest inhibition effect/activity of telomerase
CN(Cc1nc2ccc3c(c2[nH]1)C(=O)c1ccccc1C3=O)Cc1c2ccccc2cc2ccccc12 [CL11, 2-(((anthracen-10-yl)-N-methylmethanamino)methyl)-1H-anthra[1,2-d]imidazole-6,11-dione] | – | – | – | – | – | – | – | – | – | Relative SEAP activity (%) ([1]; 1 μM): 101.69 ± 5.82%; Relative SEAP activity (%) ([1]; 10 μM): 77.46 ± 6.40%; Relative MTT viability (%) ([4]; 1 µM): 98.03 ± 4.48%; Relative MTT viability (%) ([4]; 10 µM): 83.80 ± 5.64%
CCN1CCN(Cc2nc3ccc4c(c3[nH]2)C(=O)c2ccccc2C4=O)CC1 [CL25, 2-((4-ethylpiperazin-1-yl)methyl)-1H-anthra[1,2-d]imidazole-6,11-dione] | 91.8 ± 3% | 13.6% | -4.43% | 86.2 ± 5.18% | < 50% | – | – | – | – | inhibition effect/activity of telomerase (TRAP) [6]: more significant inhibition effect/activity of telomerase
O=C1c2ccccc2C(=O)c2c1ccc1nc(CNCc3cccc(C(F)(F)F)c3)[nH]c21 [CL13, 2-((3-(trifluoromethyl)benzylamino)methyl)-1H-anthra[1,2-d]imidazole-6,11-dione] | 87.1 ± 2.04% | 89.5% | 4.27% | 114 ± 3.31% | 110% | > 40% | 32.26 ± 2.68% | – | – | –
